Test results from article PMC9030166, “Natural Phaeosphaeride A Derivatives Overcome Drug Resistance of Tumor Cells and Modulate Signaling Pathways” (Pharmaceuticals, 2022).

Assays:
K562/i-S9_Dox = experiment: MTT cytotoxicity, resistant K562/i-S9_Dox cells (P-gp overexpression); type: cell-based, human; settings: Homo sapiens, K562; resistant version, doxorubicin selected, MTT, 48 h
Text: At the next stage, the cytotoxic activity of compounds 1, 2, and 9 (Scheme 2) was investigated on several pairs of cell lines that differ in the expression of P-gp and the method by which they were obtained. K562/i-S9 cells are the result of the ABCB1 transfection into K562 cells, which increases P-gp expression, but should not seriously affect other signaling pathways that could lead to drug resistance. K562/i-S9_Dox cells were obtained from K562/i-S9 by selection with low concentrations of doxorubicin to increase P-gp expression. Subline HBL-100/Dox is a derivative of HBL-100 cells, obtained by long-term selection with increasing concentrations of doxorubicin, which led not only to an increase in P-gp expression, but also to a change in the signaling pathways in this subline. Cells of the K562/i-S9_Dox subline express the highest level of P-gp: 94.7% ± 2.3 (p < 0.0001 relative to K562, and p = 0.04 relative to K562/i-S9). In cells of the K562/i-S9 line, the expression of P-gp is 80% ± 8.2 (p < 0.0001 relative to K562). At 0.7% ± 0.5, P-gp is practically not expressed in K562 cells (Figure 1).
Modifications of cell lines: K562/i-S9 is a clone obtained after transfection of K562 cells with the ABCB1 (MDR1) gene-encoding P-glycoprotein [36]. Cells HBL-100/Dox and K562/i-S9_Dox are cells obtained by long-term selection with increasing concentrations of doxorubicin (Sigma-Aldrich, St. Louis, MO, USA) from HBL-100 and K562/i-S9 cells, respectively. MCF-7, A594 cells, and primary cultures of soft tissue sarcomas were cultured in DMEM medium (PanEko, Russia), PC-3 and HCT-116 cells and all suspension cultures in RPMI1640 medium (PanEko, Russia) supplemented with 10% fetal bovine serum (GE Healthcare LifeSciences, USA), and gentamicin at a concentration of 40 μg/mL at 37 °C and 5% CO2.
Cells MCF-7, PC-3, A549, and HCT-116, and primary cultures of STSwere seeded in 96-well plates, 6 × 10^3 cells per well in 90 μL of culture medium. Suspension cultures were seeded at a concentration of 25 × 10^3 cells per well in 135 μL of medium. The test substances were dissolved in DMSO (Applichem, Council Bluffs, IA, USA) until a concentration of 1 × 10^−^2 M was obtained; for the subsequent dilution of the substances, a serum-free culture medium was used. The next day, for adhesive cultures, and on the same day, for suspension cultures, substances were added to the plates in a volume of 10 μL (adhesive cultures) and 15 μL (suspension cultures) per well at various concentrations; each concentration was added in 3–4 repetitions. The cells were cultured in the presence of substances for 48 h. Then, MTT reagent (PanEko, Moscow, Russia) was added to the wells at a concentration of 5 mg/mL in a volume of 20 μL per well. After 1.5–2 h, the medium with the reagent was removed, and the precipitate of the crystals of formazan was dissolved in 60 μL of DMSO. The optical density was determined using a Multiskan FC spectrophotometer (Thermo Scientific, Waltham, MA, USA) at a wavelength of 540 nm.
Based on the results of the experiments, a schedule was plotted of the dependence of the percentage of surviving cells (from control) on the concentration of the compound, and the sought concentration IC50 was calculated. The experiments were carried out in 3–4 times.

Akt (pSer473) = experiment: MILLIPLEX MAP 9-Plex, Akt active form in A431 lysates; type: cell-based, human; settings: A431 cell lysates, 10 μM, 1 h, M ± mx; control 76.4 ± 16.9
Text: We used the MILLIPLEX MAP Multi-Pathway Magnetic Bead 9-Plex-Cell Signaling Multiplex Assay, which allows the simultaneous detection of nine phosphorylated proteins that are markers of the main intracellular signaling pathways (phosphorylation site is indicated in parentheses), a universal transcription factor that controls the expression of immune response genes; apoptosis and cell cycle NFκB (pS536); cAMP-dependent transcription factor (CREB (pS133); mitogen-activated kinase p38 (pT180/pY182); stress-activated protein kinase JNK (pT183/pY185); ribosomal […]; transcription factors STAT3 (pS727) and STAT5A/B (pY694/699); protein kinase B (Akt) (pS473); and kinase regulated by extracellular signals ERK1/2 (pT185/pY187).
The effect of various concentrations of PPA derivatives on the cell culture was studied using xCelligence RTCA equipment (AceaBioscience, San Diego, CA, USA). The concentration closest to the IC50 (10 μM) was chosen as the experimental concentration. The selected concentration of phaeosphaeride A derivatives allows for the assessment of the early effect of compounds on cells and compares their effectiveness. In this experiment, the signaling pathways Akt (pSer473), p70S6K (pThr412), NFkB (p65-pSer536), and CREB (pSer133) were not activated (Table 8). The stress-activated signaling pathways ERK/MAP kinase 1/2 (pThr185/pTyr187), JNK (pThr183/pTyr185), and p38 (pThr180/pTyr182) were activated for these compounds.
We used a MILLIPLEX MAP Multi-Pathway Magnetic Bead 9-Plex-Cell Signaling Multiplex Assay kit (Merck/Millipore), according to the manufacturer’s protocol. A431 cells were cultured in DMEM with 10% FBS in 24-well plates. Compounds were added to the subconfluent cells at a concentration of 10 μM in DMEM medium for 1 h. Each compound was added in 5 experimental repeats. Cell lysates were prepared with lysis buffer (Millipore) with protease inhibitors (Complete, Roche); the protein concentration in the lysates was determined by the Lowry method. In samples equalized in protein concentration, the active forms of kinase cascades were determined using a Bio-Plex 200 fluorescent analyzer (Bio-Rad).

C=C1C2=C(C(=O)N1OC)[C@@H](N(C)C)[C@@](C)(O)[C@H](CCCCC)O2 [Compound 2, (2S,3R,4R)-4-(dimethylamino)-3-hydroxy-6-methoxy-3-methyl-7-methylene-2-pentyl-3,4,6,7-tetrahydropyrano[2,3-c]pyrrol-5(2H)-one]
IC50 (K562/i-S9_Dox): 2.4 ± 0.9 µM | Akt (pSer473) fluorescence intensity (Akt (pSer473)): 132.4 ± 17.9 rel. units

C=C1C2=C(C(=O)N1OC)[C@@H](N(CC)CCO)[C@@](C)(O)[C@H](CCCCC)O2 [Compound 9, (2S,3R,4R)-4-[ethyl(2-hydroxyethyl)amino]-3-hydroxy-6-methoxy-3-methyl-7-methylene-2-pentyl-3,4,6,7-tetrahydropyrano[2,3-c]pyrrol-5(2H)-one]
IC50 (K562/i-S9_Dox): 3.3 ± 0.6 µM | Akt (pSer473) fluorescence intensity (Akt (pSer473)): 88.8 ± 10.7 rel. units

C=C1C2=C(C(=O)N1OC)[C@@H](N1CCCC1)[C@@](C)(O)[C@H](CCCCC)O2 [Compound 1]
IC50 (K562/i-S9_Dox): 3.1 ± 0.8 µM | Akt (pSer473) fluorescence intensity (Akt (pSer473)): 112.6 ± 12.0 rel. units

CCCCC[C@@H]1OC2=C(C(=O)N(OC)/C2=C\n2cnnc2)C(n2cnnc2)[C@@]1(C)O (some centres unmarked) [Compound 10]
Akt (pSer473) fluorescence intensity (Akt (pSer473)): 142.1 ± 9.5 *↑ rel. units

C=C1C2=C(C(=O)N1OC)[C@@H](N(CCCC)CCCC)[C@@](C)(O)[C@H](CCCCC)O2 [Compound 5, (2S,3R,4R)-4-(dibutylamino)-3-hydroxy-6-methoxy-3-methyl-7-methylene-2-pentyl-3,4,6,7-tetrahydropyrano[2,3-c]pyrrol-5(2H)-one]
Akt (pSer473) fluorescence intensity (Akt (pSer473)): 100.9 ± 11.7 rel. units
